Measurements reported in patent publication US20240083900A1, “PYRAZOLO[1,5-A]PYRAZINE DERIVATIVES AS BTK INHIBITORS” (BIOGEN MA INC., priority 2020, published 2024).
Read-outs that look alike come from different tables or passages of the source.

Legend:
[1] = test system: CD69 expression on CD19+ B cells in human whole blood stimulated with anti-human IgD; experiment: In Vitro whole blood CD69 Assay; assay type: cell-based; details: human heparinized whole blood, anti-human IgD stimulation overnight, percentage of CD19+ B cells expressing CD69, flow cytometry
BTK = BTK (Homo sapiens (Human), UniProt Q06187); experiment: In Vitro BTK Kinase Assay: Btk-PolyGAT-LS Assay; assay type: biochemical; details: BTK enzyme 0.25 nM, ATP 10 μM, polyGAT 100 nM, 30 minutes incubation, TRF readout; read-out: IC50
Method in brief: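 Human BTK activity was measured with final 10 μM ATP and 100 nM polyGAT substrate in pH 7.5 Tris buffer with 10 mM MgCl2, DTT, Triton X-100 and casein.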

[2] = Homo sapiens, B-cell, read-out: IC50

Sequence of BTK (Q06187 whole entry): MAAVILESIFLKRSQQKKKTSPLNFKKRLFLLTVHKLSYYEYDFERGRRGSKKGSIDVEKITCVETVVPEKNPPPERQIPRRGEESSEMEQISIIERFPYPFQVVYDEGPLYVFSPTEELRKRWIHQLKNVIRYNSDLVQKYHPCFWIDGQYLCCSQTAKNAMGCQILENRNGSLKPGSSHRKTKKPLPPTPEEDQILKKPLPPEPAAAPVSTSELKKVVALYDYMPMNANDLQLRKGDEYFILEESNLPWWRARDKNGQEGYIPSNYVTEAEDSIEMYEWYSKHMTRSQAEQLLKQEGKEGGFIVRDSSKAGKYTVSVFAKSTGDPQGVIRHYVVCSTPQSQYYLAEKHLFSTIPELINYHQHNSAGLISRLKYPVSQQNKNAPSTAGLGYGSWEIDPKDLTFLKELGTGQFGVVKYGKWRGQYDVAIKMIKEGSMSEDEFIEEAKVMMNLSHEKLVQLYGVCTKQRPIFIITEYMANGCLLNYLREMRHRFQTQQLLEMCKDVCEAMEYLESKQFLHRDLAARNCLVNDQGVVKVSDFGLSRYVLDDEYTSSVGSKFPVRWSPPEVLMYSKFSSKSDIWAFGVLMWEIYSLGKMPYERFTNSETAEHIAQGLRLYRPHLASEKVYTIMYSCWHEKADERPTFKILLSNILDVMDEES

Row | SMILES | IC50 [1, 2] [nM] | IC50 (BTK) [nM] | IC50 ([1]; read-out: IC50) [nM] | IC50 ([1]; Homo sapiens, B-cell) [nM]
1 | C=CC(=O)N1CCC[C@@H](Oc2nc(-c3cn(C)nc3C)cn3ncnc23)CC1 [Example 70, 1-[(4R)-4-[[6-(1,3-dimethylpyrazol-4-yl)-[1,2,4]triazolo[1,5-a]pyrazin-8-yl]oxy]azepan-1-yl]prop-2-en-1-one] | 1000 to 10000 | 1 to 10 | – | –
2 | CC#CC(=O)N(C)[C@H]1CCC[C@@H](Oc2nc(-c3cnn(C)c3)cn3ncc(F)c23)C1 [Example 92, N-((1S,3R)-3-((3-fluoro-6-(1-methyl-H-pyrazol-4-yl)pyrazolo[1,5-a]pyrazin-4-yl)oxy)cyclohexyl)-N-methylbut-2-ynamide] | 1000 to 10000 | < 1 | – | –
3 | C=CC(=O)N1CCC[C@@H](Oc2nc(-c3ccc(=O)n(C)c3)cn3nccc23)CC1 (single isomer, unassigned) [Example 71 E2] | 1000 to 10000 | 10 to 1000 | – | –
4 | CC#CC(=O)N[C@H]1CC[C@@H](Oc2nc(-c3cnn(C)c3)cn3ncc(F)c23)C1 [Example 95, N-((1S,3R)-3-((3-fluoro-6-(1-methyl-1H-pyrazol-4-yl)pyrazolo[1,5-a]pyrazin-4-yl)oxy)cyclopentyl) but-2-ynamide] | < 1000 | < 1 | – | –
5 | C=CC(=O)N1CCC[C@@H](Oc2nc(-c3cnn(C)c3)cn3ncc(F)c23)CC1 [Example 61, 1-[(4R)-4-[3-fluoro-6-(1-methylpyrazol-4-yl)pyrazolo[1,5-a]pyrazin-4-yl]oxyazepan-1-yl]prop-2-en-1-one] | < 1000 | < 1 | – | –
6 | C=CC(=O)N(C)[C@H]1CC[C@@H]1COc1nc(-c2cnn(C)c2)cn2nccc12 (relative stereo) [Example 129, trans-N-methyl-N-(2-(((6-(1-methyl-1H-pyrazol-4-yl)pyrazolo[1,5-a]pyrazin-4-yl)oxy)methyl)cyclobutyl)acrylamide] | 1000 to 10000 | 10 to 1000 | – | –
7 | C#CC(=O)NC1CCCN(c2nc(-c3cnn(C)c3)cn3nccc23)C1 (stereo not shown) [Example 21, N-[1-[6-(1-methylpyrazol-4-yl)pyrazolo[1,5-a]pyrazin-4-yl]-3-piperidyl]prop-2-ynamide] | 1000 to 10000 | 1 to 10 | – | –
8 | C=CC(=O)N1CCC[C@H]2[C@@H]1C[C@@]2(C)Oc1nc(-c2cnn(C)c2)cn2nccc12 (single isomer, unassigned) [Example 111] | < 1000 | < 1 | – | –
9 | C[C@H]1O[C@@H]1C(=O)N1CC[C@@H]2[C@H]1C[C@]2(C)Oc1nc(-c2cnn(C)c2)cn2nccc12 (single isomer, unassigned) [Example 193] | 1000 to 10000 | 1 to 10 | – | –
10 | C#CC(=O)N(C)C1CCCN(c2nc(-c3cnn(C)c3)cn3nccc23)C1 (stereo not shown) [Example 24, N-methyl-N-[1-[6-(1-methylpyrazol-4-yl)pyrazolo[1,5-a]pyrazin-4-yl]-3-piperidyl]prop-2-ynamide] | > 10000 | 10 to 1000 | – | –
11 | C=CC(=O)N1CCC[C@@H](Oc2cc(-c3cnn(C)c3)cn3nccc23)CC1 [Example 66, 1-[(4R)-4-[6-(1-methylpyrazol-4-yl)pyrazolo[1,5-a]pyridin-4-yl]oxyazepan-1-yl]prop-2-en-1-one] | < 1000 | < 1 | – | –
12 | CC#CC(=O)N(C)[C@@H]1C[C@@H]2C[C@H]1[C@@H](Oc1nc(-c3cnn(C)c3)cn3nccc13)C2 (racemic) [Example 123, N-methyl-N-((1S,2S,4R,6R)-6-((6-(1-methyl-1H-pyrazol-4-yl)pyrazolo[1,5-a]pyrazin-4-yl)oxy)bicyclo[2.2.1]heptan-2-yl)but-2-ynamide and N-methyl-N-((1R,2R,4S,6S)-6-((6-(1-methyl-1H-pyrazol-4-y)pyrazolo[1,5-a]pyrazin-4-yl)oxy)bicyclo[2.2.1]heptan-2-y)but-2-ynamide] | – | 1 to 10 | 1000 to 10000 | –
13 | Cn1cc(-c2cn3nccc3c(N3CCCC(NC(=O)/C=C/CCl)C3)n2)cn1 (stereo not shown) [Example 22, 4-chloro-N-[1-[6-(1-methylpyrazol-4-yl)pyrazolo[1,5-a]pyrazin-4-yl]-3-piperidyl]but-2-enamide] | 1000 to 10000 | 1 to 10 | – | –
14 | C=CC(=O)N1CC[C@H]2[C@@H](Oc3nc(-c4cnn(C)c4)cn4nccc34)C(C)(C)[C@H]21 [Example 171, 1-((1S,5R,6R)-7,7-dimethyl-6-((6-(1-methyl-1H-pyrazol-4-yl)pyrazolo[1,5-a]pyrazin-4-yl)oxy)-2-azabicyclo[3.2.0]heptan-2-yl)prop-2-en-1-one] | 1000 to 10000 | 10 to 1000 | – | –
15 | C=CC(=O)N1CCC[C@@](F)(COc2nc(-c3cnn(C)c3)cn3nccc23)C1 [Example 188, (S)-1-(3-fluoro-3-(((6-(1-methyl-1H-pyrazol-4-yl)pyrazolo[1,5-a]pyrazin-4-yl)oxy)methyl)piperidin-1-yl)prop-2-en-1-one] | < 1000 | 1 to 10 | – | –
16 | Cn1cc(-c2cn3nccc3c(O[C@]3(C)C[C@H](N(C)C(=O)/C=C/C(F)(F)F)C3)n2)cn1 [Example 232, (E)-4,4,4-trifluoro-N-methyl-N-((1s,3s)-3-methyl-3-((6-(1-methyl-1H-pyrazol-4-yl)pyrazolo[1,5-a]pyrazin-4-yl)oxy)cyclobutyl)but-2-enamide] | < 1000 | < 1 | – | –
17 | C=CS(=O)(=O)N1CCC[C@@H](Oc2nc(-c3cnn(C)c3)cn3nccc23)CC1 [Example 28, (R)-6-(1-methyl-1H-pyrazol-4-yl)-4-((1-(vinylsulfonyl)azepan-4-yl)oxy)pyrazolo[1,5-a]pyrazine] | < 1000 | < 1 | – | –
18 | C#CC(=O)N1CCC(Oc2nc(-c3cnn(C)c3)cn3nccc23)CC1 [Example 1, 1-[4-[6-(1-methylpyrazol-4-yl)pyrazolo[1,5-a]pyrazin-4-yl]oxy-1-piperidyl]prop-2-yn-1-one] | > 10000 | 1 to 10 | – | –
19 | C#CC(=O)N1CCC[C@@H](Oc2nc(-c3cnn(C)c3)cn3nccc23)C1 [Example 7, (R)-1-(3-((6-(1-methyl-1H-pyrazol-4-yl)pyrazolo[1,5-a]pyrazin-4-yl)oxy)piperidin-1-yl)prop-2-yn-1-one] | 1000 to 10000 | < 1 | – | –
20 | C=CC(=O)N(C)[C@H]1C[C@](C)(Oc2nc(-c3cnn(C)c3)cn3nccc23)[C@@H]1C (single isomer, unassigned) [Example 109] | – | 1 to 10 | – | < 1000
21 | C=CC(=O)N1[C@@H]2CC[C@H]1[C@@H](Oc1nc(-c3cnn(C)c3)cn3nccc13)C2 [Example 235, 1-((1S,2S,4R)-2-((6-(1-methyl-1H-pyrazol-4-yl)pyrazolo[1,5-a]pyrazin-4-yl)oxy)-7-azabicyclo[2.2.1]heptan-7-yl)prop-2-en-1-one] | < 1000 | < 1 | – | –
22 | C=CC(=O)N(C)[C@@H]1C[C@@](C)(Oc2nc(-c3cnn(C)c3)cn3nccc23)[C@H]1C (single isomer, unassigned) [Example 108] | – | < 1 | – | < 1000
23 | C=CC(=O)NC12CCCC(Oc3nc(-c4cnn(C)c4)cn4nccc34)(C1)C2 [Example 224, N-(5-((6-(1-methyl-1H-pyrazol-4-yl)pyrazolo[1,5-a]pyrazin-4-yl)oxy)bicyclo[3.1.1]heptan-1-yl)acrylamide] | 1000 to 10000 | < 1 | – | –
24 | C=CC(=O)N1CCC[C@@H](Oc2nc(-c3cnn(C)c3)cc3nccn23)CC1 (single isomer, unassigned) [Example 34, (S) or (R)-1-(4-((7-(1-methyl-1H-pyrazol-4-yl)imidazo[1,2-c]pyrimidin-5-yl)oxy)azepan-1-yl)prop-2-en-1-one] | < 1000 | 1 to 10 | – | –
25 | C=CC(=O)N1CC[C@@H]2[C@H](Oc3nc(-c4cnn(C)c4)cn4nccc34)C(C)(C)[C@@H]21 [Example 172, 1-((1R,5S,6S)-7,7-dimethyl-6-((6-(1-methyl-1H-pyrazol-4-yl)pyrazolo[1,5-a]pyrazin-4-yl)oxy)-2-azabicyclo[3.2.0]heptan-2-yl)prop-2-en-1-one] | 1000 to 10000 | < 1 | – | –
26 | C=CC(=O)N1CCOC[C@@H](Oc2nc(-c3cnn(C)c3)cn3nccc23)C1 [Example 54, (S)-1-(6-((6-(1-methyl-1H-pyrazol-4-yl)pyrazolo[1,5-a]pyrazin-4-yl)oxy)-1,4-oxazepan-4-yl)prop-2-en-1-one] | > 10000 | 1 to 10 | – | –
27 | CN(C(=O)/C=C/C#N)[C@H]1CC[C@@H](Oc2nc(-c3cnn(C)c3)cn3nccc23)C1 (racemic) [Example 150, rac-(E)-3-cyano-N-methyl-N-((1R,3S)-3-((6-(1-methyl-1H-pyrazol-4-yl)pyrazolo[1,5-a]pyrazin-4-yl)oxy)cyclopentyl)acrylamide] | < 1000 | < 1 | – | –
28 | CC#CC(=O)N1CC(C)(C)OC(C)(COc2nc(-c3cnn(C)c3)cn3nccc23)C1 (single isomer, unassigned) [Example 121, 1-(2,2,6-trimethyl-6-(((6-(1-methyl-1H-pyrazol-4-yl)pyrazolo[1,5-a]pyrazin-4-yl)oxy)methyl)morpholino)but-2-yn-1-one] | < 1000 | 1 to 10 | – | –
29 | C=CS(=O)(=O)N1CCC(Oc2nc(-c3cnn(C)c3)cn3nccc23)CC1 [Example 3, 6-(1-methyl-1H-pyrazol-4-yl)-4-((1-(vinylsulfonyl)piperidin-4-yl)oxy)pyrazolo[1,5-a]pyrazine] | > 10000 | < 1 | – | –
